Measured values from patent publication US10144706B2 (BRISTOL-MYERS SQUIBB COMPANY, priority 2016, dated 2018).
Where two headings read alike, the source gives them in different places.

Target: T1, PD-1/PD-L1 interaction (PD-1-Ig / PD-L1-His) (Homo sapiens, UniProt Q9NZQ7)
T1 construct: hPDL1(18-239)-TVMV-His; TVMV protease site linker (C); made in house; host or cells: HEK293T
Experiment: PD-1/PD-L1 Homogenous Time-Resolved Fluorescence (HTRF) binding assay
Conditions: PD-L1-His 10 nM, PD-1-Ig 20 nM, read-out: Range or IC50
Excerpt: The ability of the compounds of formula (I) to bind to PD-L1 was investigated using a PD-1/PD-L1 Homogenous Time-Resolved Fluorescence (HTRF) binding assay.
Homogenous Time-Resolved Fluorescence (HTRF) Binding Assay.
The interaction of PD-1 and PD-L1 can be assessed using soluble, purified preparations of the extracellular domains of the two proteins. The PD-1 and PD-L1 protein extracellular domains were expressed as fusion proteins with detection tags, for PD-1, the tag was the Fc portion of Immunoglobulin (PD-1-Ig) and for PD-L1 it was the 6 histidine motif (PD-L1-His). All binding studies were performed in an HTRF assay buffer consisting of dPBS supplemented with 0.1% […] bovine serum albumin and 0.05% (v/v) Tween-20. For the h/PD-L1-His binding assay, inhibitors were pre-incubated with PD-L1-His (10 nM final) for 15 m in 4 μl of assay buffer, followed by addition of PD-1-Ig (20 nM final) in 1 μl of assay buffer and further incubation for 15 m. HTRF detection was achieved using europium crypate-labeled anti-Ig (1 nM final) and allophycocyanin (APC) labeled anti-His (20 nM final). Antibodies were diluted in HTRF detection buffer and 5 μl was dispensed on top of the binding reaction. […] Additional binding assays were established between the human proteins PD-1-Ig/PD-L2-His (20 & 5 nM, respectively) and CD80-His/PD-L1-Ig (100 & 10 nM, respectively). […]

T1 sequence (Q9NZQ7 with tags, fused parts or gaps): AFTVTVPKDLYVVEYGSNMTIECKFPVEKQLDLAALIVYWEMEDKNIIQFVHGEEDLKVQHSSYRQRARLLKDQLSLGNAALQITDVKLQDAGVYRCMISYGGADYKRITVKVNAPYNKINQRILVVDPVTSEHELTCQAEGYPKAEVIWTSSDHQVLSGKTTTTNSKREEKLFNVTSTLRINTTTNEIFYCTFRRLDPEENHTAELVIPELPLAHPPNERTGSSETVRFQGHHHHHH

Row | Compound | IC50 (IC50 range class) [nM] | IC50 (numeric IC50) [nM]
1 | Cc1c(OCCCN2CC[C@@H](O)C2)cccc1-c1cccc(OCCCN2C[C@H](O)C[C@H]2C(=O)O)c1C [Example 2039, (2S,4R)-4-hydroxy-1-(3-((3′-(3-((R)-3-hydroxypyrrolidin-1-yl)propoxy)-2,2′-dimethyl-[1,1′-biphenyl]-3-yl)oxy)propyl)pyrrolidine-2-carboxylic acid] | 1000 to 10000 | –
2 | Cc1c(OCCCNCCc2ccccc2)cccc1-c1cccc(OCCCN2CC[C@@H](O)C2)c1C [Example 2041, (R)-1-(3-((2,2′-dimethyl-3′-(3-(phenethylamino)propoxy)-[1,1′-biphenyl]-3-yl)oxy)propyl)pyrrolidin-3-ol] | 90.1 to 1000 | –
3 | Cc1c(OCCCNCCCO)cccc1-c1cccc(OCCCN2CC[C@@H](O)C2)c1C [Example 2042, (R)-1-(3-((3′-(3-((3-hydroxypropyl)amino)propoxy)-2,2′-dimethyl-[1,1′-biphenyl]-3-yl)oxy)propyl)pyrrolidin-3-ol] | 20.1 to 90 | –
4 | Cc1c(OCCCNCCc2cn(C)cn2)cccc1-c1cccc(OCCCN2CC[C@@H](O)C2)c1C [Example 2043, (R)-1-(3-((2,2′-dimethyl-3′-(3-((2-(1-methyl-1H-imidazol-4-yl)ethyl)amino)propoxy)-[1,1′-biphenyl]-3-yl)oxy)propyl)pyrrolidin-3-ol] | 90.1 to 1000 | –
5 | Cc1c(OCCCNCC2CCN(C)CC2)cccc1-c1cccc(OCCCN2CC[C@@H](O)C2)c1C [Example 2044, (R)-1-(3-((2,2′-dimethyl-3′-(3-(((1-methylpiperidin-4-yl)methyl)amino)propoxy)-[1,1′-biphenyl]-3-yl)oxy)propyl)pyrrolidin-3-ol] | 90.1 to 1000 | –
6 | Cc1c(OCCCNC[C@H](O)C(=O)O)cccc1-c1cccc(OCCCN2CC[C@@H](O)C2)c1C [Example 2045, (S)-2-hydroxy-3-((3-((3′-(3-((R)-3-hydroxypyrrolidin-1-yl)propoxy)-2,2′-dimethyl-[1,1′-biphenyl]-3-yl)oxy)propyl)amino)propanoic acid] | 90.1 to 1000 | –
7 | Cc1c(OCCCNCC(C)(C)CO)cccc1-c1cccc(OCCCN2CC[C@@H](O)C2)c1C [Example 2046, (R)-1-(3-((3′-(3-((3-hydroxy-2,2-dimethylpropyl)amino)propoxy)-2,2′-dimethyl-[1,1′-biphenyl]-3-yl)oxy)propyl)pyrrolidin-3-ol] | 20.1 to 90 | –
8 | Cc1c(OCCCNC(CO)c2ccncc2)cccc1-c1cccc(OCCCN2CC[C@@H](O)C2)c1C (stereo partly drawn) [Example 2047, (3R)-1-(3-((3′-(3-((2-hydroxy-1-(pyridin-4-yl)ethyl)amino)propoxy)-2,2′-dimethyl-[1,1′-biphenyl]-3-yl)oxy)propyl)pyrrolidin-3-ol] | 90.1 to 1000 | –
9 | CC(=O)NCCNCCCOc1cccc(-c2cccc(OCCCN3CC[C@@H](O)C3)c2C)c1C [Example 2048, (R)—N-(2-((3-((3′-(3-(3-hydroxypyrrolidin-1-yl)propoxy)-2,2′-dimethyl-[1,1′-biphenyl]-3-yl)oxy)propyl)amino)ethyl)acetamide] | 20.1 to 90 | –
10 | Cc1c(OCCCN(C)Cc2cccnc2)cccc1-c1cccc(OCCCN2CC[C@@H](O)C2)c1C [Example 2049, (R)-1-(3-((2,2′-dimethyl-3′-(3-(methyl(pyridin-3-ylmethyl)amino)propoxy)-[1,1′-biphenyl]-3-yl)oxy)propyl)pyrrolidin-3-ol] | 90.1 to 1000 | –
11 | Cc1c(OCCCNCc2cccnc2)cccc1-c1cccc(OCCCN2CC[C@@H](O)C2)c1C [Example 2050, (R)-1-(3-((2,2′-dimethyl-3′-(3-((pyridin-3-ylmethyl)amino)propoxy)-[1,1′-biphenyl]-3-yl)oxy)propyl)pyrrolidin-3-ol] | 1000 to 10000 | –
12 | Cc1c(OCCCNC[C@@H](O)CO)cccc1-c1cccc(OCCCN2CC[C@@H](O)C2)c1C [Example 2052, (R)-3-((3-((3′-(3-((R)-3-hydroxypyrrolidin-1-yl)propoxy)-2,2′-dimethyl-[1,1′-biphenyl]-3-yl)oxy)propyl)amino)propane-1,2-diol] | 90.1 to 1000 | –
13 | CCCN(CCO)CCCOc1cccc(-c2cccc(OCCCN3CC[C@@H](O)C3)c2C)c1C [Example 2053, (R)-1-(3-((3′-(3-((2-hydroxyethyl)(propyl)amino)propoxy)-2,2′-dimethyl-[1,1′-biphenyl]-3-yl)oxy)propyl)pyrrolidin-3-ol] | 90.1 to 1000 | –
14 | Cc1c(OCCCN(C)CCC(N)=O)cccc1-c1cccc(OCCCN2CC[C@@H](O)C2)c1C [Example 2054, (R)-3-((3-((3′-(3-(3-hydroxypyrrolidin-1-yl)propoxy)-2,2′-dimethyl-[1,1′-biphenyl]-3-yl)oxy)propyl)(methyl)amino)propanamide] | 20.1 to 90 | –
15 | Cc1c(OCCCN[C@@H](CO)C(C)C)cccc1-c1cccc(OCCCN2CC[C@@H](O)C2)c1C [Example 2055, (R)-1-(3-((3′-(3-(((R)-1-hydroxy-3-methylbutan-2-yl)amino)propoxy)-2,2′-dimethyl-[1,1′-biphenyl]-3-yl)oxy)propyl)pyrrolidin-3-ol] | 90.1 to 1000 | –
16 | Cc1c(OCCCN(Cc2ccccn2)Cc2ccccn2)cccc1-c1cccc(OCCCN2CC[C@@H](O)C2)c1C [Example 2056, (R)-1-(3-((3′-(3-(bis(pyridin-2-ylmethyl)amino)propoxy)-2,2′-dimethyl-[1,1′-biphenyl]-3-yl)oxy)propyl)pyrrolidin-3-ol] | – | 3180
17 | Cc1c(OCCCN[C@H](CO)c2ccccc2)cccc1-c1cccc(OCCCN2CC[C@@H](O)C2)c1C [Example 2057, (R)-1-(3-((3′-(3-(((S)-2-hydroxy-1-phenylethyl)amino)propoxy)-2,2′-dimethyl-[1,1′-biphenyl]-3-yl)oxy)propyl)pyrrolidin-3-ol] | 90.1 to 1000 | –
18 | Cc1c(OCCCN[C@H](CO)C(C)C)cccc1-c1cccc(OCCCN2CC[C@@H](O)C2)c1C [Example 2058, (R)-1-(3-((3′-(3-(((S)-1-hydroxy-3-methylbutan-2-yl)amino)propoxy)-2,2′-dimethyl-[1,1′-biphenyl]-3-yl)oxy)propyl)pyrrolidin-3-ol] | 90.1 to 1000 | –

Results, then the molecule that gave them:

Row | IC50 (IC50 range class) [nM] | IC50 (numeric IC50) [nM] | Compound
19 | 20.1 to 90 | – | Cc1c(OCCCNCCn2cc(Cl)cn2)cccc1-c1cccc(OCCCN2CC[C@@H](O)C2)c1C [Example 2060, (R)-1-(3-((3′-(3-((2-(4-chloro-1H-pyrazol-1-yl)ethyl)amino)propoxy)-2,2′-dimethyl-[1,1′-biphenyl]-3-yl)oxy)propyl)pyrrolidin-3-ol]
20 | 20.1 to 90 | – | Cc1c(OCCCNCCc2ncn(C)c2Cl)cccc1-c1cccc(OCCCN2CC[C@@H](O)C2)c1C [Example 2061]
21 | 20.1 to 90 | – | Cc1c(OCCCN(C)Cc2ccccn2)cccc1-c1cccc(OCCCN2CC[C@@H](O)C2)c1C [Example 2062, (R)-1-(3-((2,2′-dimethyl-3′-(3-(methyl(pyridin-2-ylmethyl)amino)propoxy)-[1,1′-biphenyl]-3-yl)oxy)propyl)pyrrolidin-3-ol]
22 | 20.1 to 90 | – | Cc1c(OCCCN2CCN(CCO)CC2)cccc1-c1cccc(OCCCN2CC[C@@H](O)C2)c1C [Example 2063, (R)-1-(3-((3′-(3-(4-(2-hydroxyethyl)piperazin-1-yl)propoxy)-2,2′-dimethyl-[1,1′-biphenyl]-3-yl)oxy)propyl)pyrrolidin-3-ol]
23 | 20.1 to 90 | – | Cc1c(OCCCN(C)Cc2ccncc2)cccc1-c1cccc(OCCCN2CC[C@@H](O)C2)c1C [Example 2064, (R)-1-(3-((2,2′-dimethyl-3′-(3-(methyl(pyridin-4-ylmethyl)amino)propoxy)-[1,1′-biphenyl]-3-yl)oxy)propyl)pyrrolidin-3-ol]
24 | 20.1 to 90 | – | Cc1c(OCCCNCCc2ccc(N)cc2)cccc1-c1cccc(OCCCN2CC[C@@H](O)C2)c1C [Example 2065, (R)-1-(3-((3′-(3-((4-aminophenethyl)amino)propoxy)-2,2′-dimethyl-[1,1′-biphenyl]-3-yl)oxy)propyl)pyrrolidin-3-ol]
25 | 90.1 to 1000 | – | Cc1c(OCCCNC2CCN(C)CC2)cccc1-c1cccc(OCCCN2CC[C@@H](O)C2)c1C [Example 2066, (R)-1-(3-((2,2′-dimethyl-3′-(3-((1-methylpiperidin-4-yl)amino)propoxy)-[1,1′-biphenyl]-3-yl)oxy)propyl)pyrrolidin-3-ol]
26 | 20.1 to 90 | – | Cc1c(OCCCNC2CCN(CCO)CC2)cccc1-c1cccc(OCCCN2CC[C@@H](O)C2)c1C [Example 2067, (R)-1-(3-((3′-(3-((1-(2-hydroxyethyl)piperidin-4-yl)amino)propoxy)-2,2′-dimethyl-[1,1′-biphenyl]-3-yl)oxy)propyl)pyrrolidin-3-ol]
27 | 90.1 to 1000 | – | Cc1c(OCCCN(CCO)CCO)cccc1-c1cccc(OCCCN2CC[C@@H](O)C2)c1C [Example 2068, (R)-2,2′-((3-((3′-(3-(3-hydroxypyrrolidin-1-yl)propoxy)-2,2′-dimethyl-[1,1′-biphenyl]-3-yl)oxy)propyl)azanediyl)bis(ethan-1-ol)]
28 | 90.1 to 1000 | – | Cc1c(OCCCN[C@@H](CO)c2ccccc2)cccc1-c1cccc(OCCCN2CC[C@@H](O)C2)c1C [Example 2069, (R)-1-(3-((3′-(3-(((R)-2-hydroxy-1-phenylethyl)amino)propoxy)-2,2′-dimethyl-[1,1′-biphenyl]-3-yl)oxy)propyl)pyrrolidin-3-ol]
